# Experimental data from ChEMBL document CHEMBL6127119 (J Med Chem, 2024).
# Active and inactive are the calls of the source. No cut-off for these calls is given here.
# Key:
# [1] = test system: Peptidoglycan; test: Potency index, ratio of vancomycin Ka to test compound Ka for Ac-Lys(Gly5)-D-Ala-D-Ala lipid II model peptide moiety
# [2] = test system: Escherichia coli; test: Antibacterial activity against Escherichia coli AB1157 incubated for 16 to 24 hrs by CLSI based broth microdilution method; assay type: functional; details: time 16-24 hrs
# [3] = test system: Staphylococcus aureus; test: Antibacterial activity against methicillin-resistant Staphylococcus aureus clinical isolate incubated for 16 to 24 hrs by CLSI based broth microdilution method; assay type: functional; details: time 16-24 hrs
# [4] = test system: Staphylococcus hominis; test: Antibacterial activity against methicillin-resistant Staphylococcus hominis clinical isolate incubated for 16 to 24 hrs by CLSI based broth microdilution method; assay type: functional; details: time 16-24 hrs
# [5] = test system: Staphylococcus aureus; test: Induction of drug resistance in vancomycin-sensitive Staphylococcus aureus MRSA252 assessed as change in MIC measured after 16 days of serial passages by broth microdilution method; assay type: functional, organism-based; details: time 16.0 day
# [6] = test system: Escherichia coli; test: Potency index, ratio of Vancomycin MIC to test compound MIC for Escherichia coli […] incubated for 16 to 24 hrs by CLSI based broth microdilution method; assay type: functional; details: time 16-24 hrs
# [7] = test system: Escherichia coli; test: Induction of cytoplasmic membrane depolarization in Escherichia coli AB1157 at 5 uM by DiSC3(5) staining based analysis; assay type: functional, organism-based
# [8] = test system: Staphylococcus aureus; test: Induction of cytoplasmic membrane permeabilization in methicillin-resistant Staphylococcus aureus MRSA252 measured for 40 mins by PI/NPN staining based analysis; assay type: functional, organism-based; details: dose 1-128 µg/ml
# [9] = Half life in CD-1 mouse at 10 mg/kg, iv measured for 24 hrs by UPLC analysis; assay type: ADME, organism-based; details: in vivo
# [10] = test system: Acinetobacter baumannii; test: Potency index, ratio of Vancomycin MIC to test compound MIC for Carbapenem-resistant Acinetobacter baumannii clinical isolate incubated for 16 to 24 hrs by CLSI based broth microdilution method; assay type: functional; details: time 16-24 hrs
# [11] = test system: Escherichia coli; test: Induction of cytoplasmic membrane permeabilization in Escherichia coli AB1157 at 16 ug/ml measured for 40 mins by PI/NPN staining based assay; assay type: functional, organism-based; details: dose 16.0 µg/ml
# [12] = test system: Staphylococcus haemolyticus; test: Antibacterial activity against methicillin-resistant Staphylococcus haemolyticus clinical isolate incubated for 16 to 24 hrs by CLSI based broth microdilution method; assay type: functional; details: time 16-24 hrs
# [13] = test system: Staphylococcus aureus; test: Post-antibiotic effect in Staphylococcus aureus MRSA252 assessed as time of effect at 20 times; assay type: functional
# [14] = test system: Enterococcus faecium; test: Bacteriostatic activity against Enterococcus faecium SC-2022-D2-059 harboring VanA phenotype at 1 to 8 times MIC measured after 24 hrs by time kill assay; assay type: functional, organism-based
# [15] = test system: Acinetobacter baumannii; test: Antibacterial activity against Carbapenem-resistant Acinetobacter baumannii clinical isolate incubated for 16 to 24 hrs by CLSI based broth microdilution method; assay type: functional; details: time 16-24 hrs
# [16] = test system: Staphylococcus aureus; test: Induction of membrane disruption in Staphylococcus aureus MRSA252 assessed as leakage of protoplasm content at 1 to 8 ug/ml incubated for 4 to 24 hrs by TEM analysis; assay type: functional, organism-based; details: dose 1-8 µg/ml, time 4-24 hrs
# [17] = test system: Enterococcus faecalis; test: Induction of cytoplasmic membrane depolarization in Enterococcus faecalis ATCC29212 by DiSC3(5) staining based analysis; assay type: functional, organism-based
# [18] = test system: Enterococcus faecium; test: Potency index, ratio of Norvancomycin MIC to test compound MIC for vancomycin-resistant Enterococcus faecium incubated for 16 to 24 hrs by CLSI based broth microdilution method; assay type: functional; details: time 16-24 hrs
# [19] = test system: Enterococcus faecium; test: Antibacterial activity against vancomycin-resistant Enterococcus faecium harboring VanA phenotype incubated for 16 to 24 hrs by CLSI based broth microdilution method; assay type: functional; details: time 16-24 hrs
# [20] = test system: Staphylococcus aureus; test: Induction of drug resistance in vancomycin-intermediate Staphylococcus aureus Mu50 assessed as change in MIC after 20 passages by broth microdilution method; assay type: functional, organism-based
# [21] = test system: Escherichia coli; test: Bactericidal activity against Escherichia coli AB1157 assessed as reduction in bacterial count at MIC measured after 24 hrs by time kill assay; assay type: functional
# [22] = test system: Enterococcus faecalis; test: Induction of inner membrane permeabilization in Enterococcus faecalis ATCC29212 measured for 20 mins by DiSC3(5) staining based analysis; assay type: functional, organism-based; details: dose 1-128 µg/ml
# [23] = test system: Pseudomonas aeruginosa; test: Antibacterial activity against Pseudomonas aeruginosa PAO1 incubated for 16 to 24 hrs by CLSI based broth microdilution method; assay type: functional; details: time 16-24 hrs
# [24] = test system: Peptidoglycan; test: Binding affinity to Ac-Lys(Ac)-D-Ala-D-Ala lipid II model peptide moiety assessed as association constant by ITC analysis
# [25] = test system: Enterococcus faecium; test: Antibacterial activity against Enterococcus faecium clinical isolate incubated for 16 to 24 hrs by CLSI based broth microdilution method; assay type: functional; details: time 16-24 hrs
# [26] = test system: Escherichia coli; test: Bactericidal activity against Escherichia coli AB1157 assessed as reduction in bacterial count at 4 times MIC measured after 24 hrs by time kill assay; assay type: functional
# [27] = test system: Staphylococcus aureus; test: Antibacterial activity against methicillin-susceptible Staphylococcus aureus incubated for 16 to 24 hrs by CLSI based broth microdilution method; assay type: functional; details: time 16-24 hrs
# [28] = test system: Staphylococcus epidermidis; test: Antibacterial activity against methicillin-resistant Staphylococcus epidermidis clinical isolate incubated for 16 to 24 hrs by CLSI based broth microdilution method; assay type: functional; details: time 16-24 hrs
# [29] = test system: Peptidoglycan; test: Binding affinity to Ac-Lys(Ac)-D-Ala-D-Ala lipid II model peptide moiety assessed as change in Gibb's free energy by ITC analysis
# [30] = Volume of distribution at steady state in CD-1 mouse at 10 mg/kg, iv measured for 24 hrs by UPLC analysis; assay type: ADME, organism-based; details: in vivo, read-out: Vdss
# [31] = test system: Staphylococcus aureus; test: Antibacterial activity against Staphylococcus aureus Mu50 at 1:1 ratio of compound and phosphatidylglycerol at […] incubated for 16 to 24 hrs by absorbance based assay; assay type: functional, organism-based; details: dose 128.0 µg/ml, time 16-24 hrs
# [32] = test system: Escherichia coli; test: Bactericidal activity against Escherichia coli AB1157 assessed as reduction in bacterial count measured after 24 hrs by time kill assay; assay type: functional, organism-based
# [33] = test system: Staphylococcus aureus; test: Antibacterial activity against Staphylococcus aureus Mu50 at 1:1 ratio of compound and FPP at […] incubated for 16 to 24 hrs by absorbance based assay; assay type: functional, organism-based; details: dose 128.0 µg/ml, time 16-24 hrs
# [34] = MRT (infinity) in CD-1 mouse at 10 mg/kg, iv measured for 24 hrs by UPLC analysis; assay type: ADME, organism-based; details: in vivo
# [35] = AUC (infinity) in CD-1 mouse at 10 mg/kg, iv measured for 24 hrs by UPLC analysis; assay type: ADME, organism-based; details: in vivo
# [36] = Clearance in CD-1 mouse at 10 mg/kg, iv measured for 24 hrs by UPLC analysis; assay type: ADME, organism-based; details: in vivo
# [37] = test system: Staphylococcus aureus; test: Antibacterial activity against vancomycin-intermediate Staphylococcus aureus incubated for 16 to 24 hrs by CLSI based broth microdilution method; assay type: functional; details: time 16-24 hrs
# [38] = test system: Escherichia coli; test: Potency index, ratio of Norvancomycin MIC to test compound MIC for Escherichia coli […] incubated for 16 to 24 hrs by CLSI based broth microdilution method; assay type: functional; details: time 16-24 hrs
# [39] = test system: Klebsiella pneumoniae; test: Antibacterial activity against Klebsiella pneumoniae clinical isolate incubated for 16 to 24 hrs by CLSI based broth microdilution method; assay type: functional; details: time 16-24 hrs
# [40] = test system: Staphylococcus aureus; test: Induction of cytoplasmic membrane depolarization in methicillin-resistant Staphylococcus aureus MRSA252 by DiSC3(5) staining based analysis; assay type: functional, organism-based
# [41] = test system: Peptidoglycan; test: Binding affinity to Ac-Lys(Gly5)-D-Ala-D-Ala lipid II model peptide moiety assessed as change in Gibb's free energy by ITC analysis
# [42] = test system: Enterococcus faecium; test: Potency index, ratio of Vancomycin MIC to test compound MIC for vancomycin-resistant Enterococcus faecium incubated for 16 to 24 hrs by CLSI based broth microdilution method; assay type: functional; details: time 16-24 hrs
structure (smiles),measurement,setting,value
CC(C)C[C@@H](N)C(=O)N[C@H]1C(=O)N[C@@H](CC(N)=O)C(=O)N[C@H]2C(=O)N[C@H]3C(=O)N[C@H](C(=O)N[C@H](C(=O)NCc4ccc(-c5ccc(CNC(=N)N)cc5)cc4)c4cc(O)cc(O)c4-c4cc3ccc4O)[C@H](O)c3ccc(c(Cl)c3)Oc3cc2cc(c3O[C@@H]2O[C@H](CO)[C@@H](O)[C@H](O)[C@H]2O[C@H]2C[C@](C)(N)[C@H](O)[C@H](C)O2)Oc2ccc(cc2Cl)[C@H]1O,Ratio,[1],1.7
same,MIC,[2],8 µg/mL
same,MIC,[3],≤ 0.03 µg/mL
same,MIC,[4],≤ 0.03 µg/mL
same,Activity,[5],inactive
same,Ratio,[6],2
same,Activity,[7],inactive
same,Activity,[8],Dose-Dependent Effect
same,half-life,[9],13.4 h
same,Ratio,[10],2
same,Activity,[11],Active
same,MIC,[12],≤ 0.03 µg/mL
same,Time,[13],23 h
same,Activity,[14],Active
same,MIC,[15],64 µg/mL
same,Activity,[16],Active
same,Activity,[17],Active
same,Ratio,[18],2
same,MIC,[19],4 µg/mL
same,Activity,[20],inactive
same,Activity,[21],1 log10CFU/ml
same,Activity,[22],Dose-Dependent Effect
same,MIC,[23],> 128 µg/mL
same,Ka,[24],1.32e+06 M⁻¹
same,MIC,[25],≤ 0.03 µg/mL
same,Activity,[26],2 log10CFU/ml
same,MIC,[27],≤ 0.063 µg/mL
same,MIC,[28],≤ 0.03 µg/mL
same,deltaG,[29],-8.35 kcal/mol
same,Vd,[30],5.12 L/kg
same,Activity,[31],Active
same,Activity,[32],Dose-Dependent Effect
same,Activity,[33],Active
same,MRT inf,[34],20.2 h
same,AUC(0-inf),[35],40000 ng·h/mL
same,clearance,[36],4.2 mL/min/kg
same,MIC,[37],1 µg/mL
same,Ratio,[38],2
same,MIC,[39],> 128 µg/mL
same,Activity,[40],inactive
same,deltaG,[41],-8.69 kcal/mol
same,Ratio,[42],2
